Earlier results as cited in patent publication US8685950B2, “Use of aromatase inhibitors for treatment of ectopic pregnancy” (Wayne State University, priority 2004, dated 2014).
Structures can show the parent of a compound that is named as a salt.

Tests used:
[1] = test system: ectopic pregnancy; conditions: ectopic pregnancy patients
[2] = test system: primate endometrium
[3] = test system: progesterone production; conditions: baboon, early pregnancy
[4] = in vivo
[5] = baboons; effect reversed by diethylstilbestrol

CN(Cc1cnc2nc(N)nc(N)c2n1)c1ccc(C(=O)N[C@@H](CCC(=O)O)C(=O)O)cc1 [methotrexate]
period to resolution of the pregnancy [1]: more than three weeks in most patients

C1=C(c2ccccc2)C(c2ccc(OCCN3CCCCC3)cc2)Oc2ccccc21 (stereo not drawn) [CDRI-85/287]
amount of estrogen and progesterone receptors [2]: decrease the amount of both receptors

CCN(CC)CCOc1ccc(C(O)(Cc2ccc(OC)cc2)c2ccccc2)cc1 (stereo not drawn) [MER-25]
plasma progesterone [3]: depression in plasma progesterone

COc1ccc(C2=C(C(=O)c3ccc(OCCN4CCCC4)cc3)c3ccccc3CC2)cc1 [trioxifene mesylate]
plasma progesterone [3]: no such effect was found

CCC1(c2ccc(N)cc2)CCC(=O)NC1=O (stereo not drawn) [aminoglutethimide]
patients stopping the treatment because of side effects (lethargy, rashes, nausea, fever) [4]: 8-15%

CCN(CC)CCOc1ccc(C(O)(Cc2ccc(OC)cc2)c2ccccc2)cc1 (stereo not drawn) [ethamoxytriphetol]
placental progesterone formation and serum progesterone concentrations [5]: decreased
